This note sets out measurements from ChEMBL document CHEMBL1126820, “4-alkylamino-3-bromo-N-alkyl-1,8-naphthalimides: new photochemically activatable antiviral compounds” (1993).

Test [1] is described as follows: Concentration required for Photoinactivation of enveloped viruses. The class given is functional.
The test system of test [2] is Human immunodeficiency virus 1. Nature of the test: Concentration required for Photoinactivation of cell-associated HIV-1. The class given is functional.
In test [3] the test system is Human immunodeficiency virus 1. Nature of the test: Concentration required for Photoinactivation of cell-free HIV-1. The class given is functional, organism-based.
The test system of another test is Human alphaherpesvirus 1. Put plainly: Photoinactivation against simplex virus type 1. The class given is functional.

Molecule `CCCCCCCCNc1c(Br)cc2c3c(cccc13)C(=O)N(CCCCCCCC)C2=O` gave an Activity in test [1] of 0.1 µM.
The molecule `CCCCCCNc1c(Br)cc2c3c(cccc13)C(=O)N(CCCCCC)C2=O` registered an Activity in test [1] of 0.1 µM.
Consider `CCCCCCN1C(=O)c2cccc3c(NCCNC(=O)CCCCC(=O)NCCNc4c(Br)cc5c6c(cccc46)C(=O)N(CCCCCC)C5=O)c(Br)cc(c23)C1=O`, for which the Activity in test [1] was 0.1 µM; in test [2] it was 300 nM; in test [3], 1 µM; in the test with Human alphaherpesvirus 1 it was less than 500 nM.
On to `CCCCNc1c(Br)cc2c3c(cccc13)C(=O)N(CCCC)C2=O`, for which the Activity in test [1] worked out at 0.1 µM.
